According to US9902701B2, “Pyridazones and triazinones for treatment and prophylaxis of hepatitis B virus infection” (priority 2014, dated 2018):

test system: HBsAg; assay: HBsAg assay: chemiluminescence immunoassay (CLIA) of secreted HBsAg in supernatant of HepG2.2.15 cells; format: cell-based, HBV; conditions: Hepatitis B virus
Procedure: HepG2.2.15 cells (Acs et al. Proc Natl Acad Sci USA, 84, (1987), 4641-4), a constitutively HBV-expressing cell line were cultured in DMEM+Glutamax-I medium (Invitrogen, Carlsbad, Calif., USA), supplemented with 10% fetal bovine serum (Invitrogen) and G418 (Invitrogen) at a final concentration of 200 mg/L and maintained in 5% CO2 at 37° C.
HepG2.2.15 cells were seeded in duplicate into white, 96-well plates at 1.5×10^4 cells/well. The cells were treated with a three-fold serial dilution series of the compounds in DMSO. The final DMSO concentration in all wells was 1% and DMSO was used as no drug control.
The HBsAg chemiluminescence immunoassay (CLIA) kit (Autobio Diagnostics Co., Zhengzhou, China, Catalog number: CL0310-2) was used to measure the levels of secreted HBV antigens semi-quantitatively. For the detection 50 μL/well culture supernatant was used and HBsAg was quantified using HBsAg chemiluminescence immunoassay (CLIA) kit (Autobio Diagnostics Co., Zhengzhou, China, Catalog number: CL0310-2), 50 μL of the supernatant was transferred to the CLIA assay plate and 50 μL of enzyme conjugate reagent was added into each well. The plates were sealed and gently agitated for 1 hour at room temperature. The supernatant-enzyme-mixture was discarded and wells were washed 6 times with 300 μL of PBS. The residual liquid was removed by plating the CLIA plate […] on absorbent tissue paper. 25 μL of substrates A and B were added to each well. Luminance was measured using a luminometer (Mithras LB 940 Multimode Microplate Reader) after 10 minutes incubation. Dose-response curves were generated and the IC50 value was extrapolated by using the E-WorkBook Suite (ID Business Solutions Ltd., Guildford, UK). The IC50 was defined as the compound concentration (or conditioned media log dilution) at which HBsAg secretion was reduced by 50% compared to the no drug control.

Q: `CN(C(=O)CN1N=C(c2ccc(F)cc2F)CCC1=O)c1cccc(C(F)(F)F)c1` [Example 1-31, 2-[3-(2,4-Difluorophenyl)-6-oxo-4,5-dihydropyridazin-1-yl]-N-methyl-N-[3-(trifluoromethyl)phenyl]acetamide] was tested. Which IC50 did it give?
A: The IC50 was 830 nM.

Q: How did the IC50 turn out when `Cc1cc(C2=NN(CC(=O)N(C)c3ccc(C(F)(F)F)cc3)C(=O)CC2)ccc1F` [Example 1-36, 2-[3-(4-Fluoro-3-methyl-phenyl)-6-oxo-4,5-dihydropyridazin-1-yl]-N-methyl-N-[4-(trifluoromethyl)phenyl]acetamide] was run?
A: Its IC50 is 3100 nM.

Q: `CN(C(=O)CN1N=C(c2ccc(F)cc2F)CCC1=O)c1ccc(F)c(C(F)(F)F)c1` [Example 1-32, 2-[3-(2,4-Difluorophenyl)-6-oxo-4,5-dihydropyridazin-1-yl]-N-[4-fluoro-3-(trifluoromethyl)phenyl]-N-methyl-acetamide] was tested. Which IC50 did it give?
A: The IC50 was 513 nM.

Q: With `Cc1cccc(N(C)C(=O)CN2N=C(c3ccc(Cl)cc3)CCC2=O)c1` [Example 1-21, 2-[3-(4-Chlorophenyl)-6-oxo-4,5-dihydropyridazin-1-yl]-N-methyl-N-(m-tolyl)acetamide] as the compound, how does the IC50 read?
A: The IC50 was 2080 nM.

Q: How did the IC50 turn out when `CN(C(=O)CN1N=C(c2ccc(C(F)(F)F)cc2)CCC1=O)c1cccc(Cl)c1` [Example 1-39, N-(3-Chlorophenyl)-N-methyl-2-[6-oxo-3-[4-(trifluoromethyl)phenyl]-4,5-dihydropyridazin-1-yl]acetamide] was run?
A: The IC50 was 369 nM.

Q: `CN(C(=O)CN1N=C(c2ccc(F)cc2F)CCC1=O)c1ccc(Cl)cc1` [Example 1-33, N-(4-Chlorophenyl)-2-[3-(2,4-difluorophenyl)-6-oxo-4,5-dihydropyridazin-1-yl]-N-methyl-acetamide] was tested. Which IC50 did it give?
A: Its IC50 is 850 nM.

Q: For `CN(C(=O)CN1N=C(c2ccc(Br)cc2)CCC1=O)c1ccc(Cl)cc1` [Example 1-50, 2-[3-(4-Bromophenyl)-6-oxo-4,5-dihydropyridazin-1-yl]-N-(4-chlorophenyl)-N-methyl-acetamide], which IC50 is on record?
A: The IC50 was 1230 nM.

Q: How did the IC50 turn out when `CN(C(=O)CN1N=C(c2ccc(Cl)cc2)CCC1=O)c1ccc(C#N)cc1` [Example 1-10, 2-[3-(4-Chlorophenyl)-6-oxo-4,5-dihydropyridazin-1-yl]-N-(4-cyanophenyl)-N-methyl-acetamide] was run?
A: Its IC50 is 5630 nM.

Q: For `CN(C(=O)CN1N=C(c2ccc(Cl)cc2)CCC1=O)c1ccc(Cl)c(F)c1` [Example 1-4, N-(4-Chloro-3-fluoro-phenyl)-2-[3-(4-chlorophenyl)-6-oxo-4,5-dihydropyridazin-1-yl]-N-methyl-acetamide], which IC50 is on record?
A: The IC50 was 994 nM.

Q: How did the IC50 turn out when `Cc1cc(Cl)ccc1C1=NN(CC(=O)N(C)c2cccc(C(F)(F)F)c2)C(=O)CC1` [Example 1-29, 2-[3-(4-Chloro-2-methylphenyl)-6-oxo-4,5-dihydropyridazin-1-yl]-N-methyl-N-[3-(trifluoromethyl)phenyl]acetamide] was run?
A: Its IC50 is 483 nM.

Q: With `CCCCCN(C)C(=O)c1ccc(N(C)C(=O)CN2N=C(c3ccc(Cl)cc3)CCC2=O)cc1` [Example 1-14, 4-[[2-[3-(4-Chlorophenyl)-6-oxo-4,5-dihydropyridazin-1-yl]acetyl]-methyl-amino]-N-methyl-N-pentyl-benzamide] as the compound, how does the IC50 read?
A: The IC50 was 3020 nM.

Q: `CN(C(=O)CN1N=C(c2ccc(Cl)c(Cl)c2)CCC1=O)c1ccc(Cl)cc1` [Example 1-46, N-(4-Chlorophenyl)-2-[3-(3,4-dichlorophenyl)-6-oxo-4,5-dihydropyridazin-1-yl]-N-methyl-acetamide] was tested. Which IC50 did it give?
A: The IC50 was 420 nM.

Q: `CN(C(=O)CN1N=C(c2ccc(Cl)cc2)CCC1=O)c1cccc(Cl)c1` [Example 1-18, N-(3-Chlorophenyl)-2-[3-(4-chlorophenyl)-6-oxo-4,5-dihydropyridazin-1-yl]-N-methyl-acetamide] was tested. Which IC50 did it give?
A: Its IC50 is 900 nM.

Q: With `Cc1cc(C2=NN(CC(=O)N(C)c3cccc(C(F)(F)F)c3)C(=O)CC2)ccc1F` [Example 1-35, 2-[3-(4-Fluoro-3-methyl-phenyl)-6-oxo-4,5-dihydropyridazin-1-yl]-N-methyl-N-[3-(trifluoromethyl)phenyl]acetamide] as the compound, how does the IC50 read?
A: The IC50 was 4660 nM.

Q: `CN(C(=O)CN1N=C(c2ccc(Cl)cc2)CCC1=O)c1ccc(C(F)(F)F)cc1` [Example 1-9, 2-[3-(4-Chlorophenyl)-6-oxo-4,5-dihydropyridazin-1-yl]-N-methyl-N-[4-(trifluoromethyl)phenyl]acetamide] was tested. Which IC50 did it give?
A: Its IC50 is 389 nM.

Q: For `Cc1ccc(N(C)C(=O)CN2N=C(c3ccc(Cl)cc3)CCC2=O)cc1` [Example 1-7, 2-[3-(4-Chlorophenyl)-6-oxo-4,5-dihydropyridazin-1-yl]-N-methyl-N-(p-tolyl)acetamide], which IC50 is on record?
A: The IC50 was 2490 nM.

Q: For `CN(C(=O)CN1N=C(c2ccc(C#N)cc2)CCC1=O)c1ccc(Cl)cc1` [Example 1-55, N-(4-Chlorophenyl)-2-[3-(4-cyanophenyl)-6-oxo-4,5-dihydropyridazin-1-yl]-N-methyl-acetamide], which IC50 is on record?
A: Its IC50 is 3820 nM.

Q: With `CN(C(=O)CN1N=C(c2ccc(Cl)cc2)CCC1=O)c1cccc(F)c1` [Example 1-17, 2-[3-(4-Chlorophenyl)-6-oxo-4,5-dihydropyridazin-1-yl]-N-(3-fluorophenyl)-N-methyl-acetamide] as the compound, how does the IC50 read?
A: The IC50 was 1170 nM.

Q: With `CN(C(=O)CN1N=C(c2ccc(C(F)(F)F)cc2)CCC1=O)c1ccc(C(F)(F)F)cc1` [Example 1-40, N-Methyl-2-[6-oxo-3-[4-(trifluoromethyl)phenyl]-4,5-dihydropyridazin-1-yl]-N-[4-(trifluoromethyl)phenyl]acetamide] as the compound, how does the IC50 read?
A: The IC50 was 380 nM.

Q: With `CN(C(=O)Cn1nc(-c2ccc(Cl)cc2F)ccc1=O)c1ccc(C(F)(F)F)cc1` [Example 2-3, 2-[3-(4-Chloro-2-fluoro-phenyl)-6-oxo-pyridazin-1-yl]-N-methyl-N-[4-(trifluoromethyl)phenyl]acetamide] as the compound, how does the IC50 read?
A: The IC50 was 1500 nM.

Q: `CN(C(=O)CN1N=C(c2ccc(F)cc2F)CCC1=O)c1ccc(C(F)(F)F)cc1` [Example 1-30, 2-[3-(2,4-Difluorophenyl)-6-oxo-4,5-dihydropyridazin-1-yl]-N-methyl-N-[4-(trifluoromethyl)phenyl]acetamide] was tested. Which IC50 did it give?
A: The IC50 was 402 nM.

Q: `CN(C(=O)CN1N=C(c2ccc(Cl)cc2)CCC1=O)c1ccc(C(=O)NC2CCCCC2)cc1` [Example 1-15, 4-[[2-[3-(4-Chlorophenyl)-6-oxo-4,5-dihydropyridazin-1-yl]acetyl]-methyl-amino]-N-cyclohexyl-benzamide] was tested. Which IC50 did it give?
A: Its IC50 is 5240 nM.

Q: With `CN(C(=O)CN1N=C(c2ccc(Cl)c(F)c2)CCC1=O)c1ccc(F)cc1` [Example 1-22, 2-[3-(4-Chloro-3-fluoro-phenyl)-6-oxo-4,5-dihydropyridazin-1-yl]-N-(4-fluorophenyl)-N-methyl-acetamide] as the compound, how does the IC50 read?
A: Its IC50 is 940 nM.

Q: `COC(=O)c1ccc(N(C)C(=O)CN2N=C(c3ccc(Cl)cc3)CCC2=O)cc1` [Example 1-11, Methyl 4-[[2-[3-(4-chlorophenyl)-6-oxo-4,5-dihydropyridazin-1-yl]acetyl]-methyl-amino]benzoate] was tested. Which IC50 did it give?
A: The IC50 was 8740 nM.

Q: Which IC50 does the source give for `Cc1ccc(C2=NN(CC(=O)N(C)c3ccc(Cl)cc3)C(=O)CC2)cc1` [Example 1-56, N-(4-Chlorophenyl)-N-methyl-2-[6-oxo-3-(p-tolyl)-4,5-dihydropyridazin-1-yl]acetamide] here?
A: Its IC50 is 9510 nM.

Q: How did the IC50 turn out when `CN(C(=O)CN1N=C(c2ccc(Cl)c(F)c2)CCC1=O)c1ccc(C(F)(F)F)cc1` [Example 1-25, 2-[3-(4-Chloro-3-fluoro-phenyl)-6-oxo-4,5-dihydropyridazin-1-yl]-N-methyl-N-[4-(trifluoromethyl)phenyl]acetamide] was run?
A: The IC50 was 240 nM.

Q: For `CN(C(=O)CN1N=C(c2ccc(Cl)cc2)CCC1=O)c1ccc(Cl)c(Cl)c1` [Example 1-8, 2-[3-(4-Chlorophenyl)-6-oxo-4,5-dihydropyridazin-1-yl]-N-(3,4-dichlorophenyl)-N-methyl-acetamide], which IC50 is on record?
A: The IC50 was 246 nM.

Q: `Cc1cc(Cl)ccc1C1=NN(CC(=O)N(C)c2cccc(Cl)c2)C(=O)CC1` [Example 1-27, 2-[3-(4-Chloro-2-methyl-phenyl)-6-oxo-4,5-dihydropyridazin-1-yl]-N-(3-chlorophenyl)-N-methyl-acetamide] was tested. Which IC50 did it give?
A: Its IC50 is 814 nM.

Q: With `Cc1cc(C2=NN(CC(=O)N(C)c3ccc(F)c(C(F)(F)F)c3)C(=O)CC2)ccc1F` [Example 1-37, 2-[3-(4-Fluoro-3-methyl-phenyl)-6-oxo-4,5-dihydropyridazin-1-yl]-N-[4-fluoro-3-(trifluoromethyl)phenyl]-N-methyl-acetamide] as the compound, how does the IC50 read?
A: Its IC50 is 3140 nM.

Q: For `COc1ccc(N(C)C(=O)CN2N=C(c3ccc(Cl)cc3)CCC2=O)cc1` [Example 1-20, 2-[3-(4-Chlorophenyl)-6-oxo-4,5-dihydropyridazin-1-yl]-N-(4-methoxyphenyl)-N-methyl-acetamide], which IC50 is on record?
A: Its IC50 is 5690 nM.

Q: Which IC50 does the source give for `CN(C(=O)Cn1nc(-c2ccc(Cl)cc2)cnc1=O)c1ccc(Cl)cc1` [Example 3-2, N-(4-Chlorophenyl)-2-[6-(4-chlorophenyl)-3-oxo-1,2,4-triazin-2-yl]-N-methyl-acetamide] here?
A: Its IC50 is 6230 nM.

Q: For `CN(C(=O)CN1N=C(c2ccc(C(F)(F)F)cc2)CCC1=O)c1ccc(F)cc1` [Example 1-43, N-(4-Fluorophenyl)-N-methyl-2-[6-oxo-3-[4-(trifluoromethyl)phenyl]-4,5-dihydropyridazin-1-yl]acetamide], which IC50 is on record?
A: The IC50 was 2470 nM.
